The text below walks through data of patent US9907857B2, “Peptide having cell membrane penetrating activity” (EWHA UNIVERSITY-INDUSTRY COLLABORATION FOUNDATION, priority 2006, dated 2018).

Holding throughout (assay type): cell-based
Test [1] deals with HeLa cells. Briefly: Cell penetrating efficiency of rhodamine-labelled TCTP-derived peptides, microplate fluorescence reader. The following applies: for intracellular translocation, dependence on concentration: 0-100 μM, 15 minutes or 2 hours; for efficiency versus control peptide TAT at low concentration: 1 μM and 10 μM; for cell penetrating activity / translocation efficiency in comparison with TAT (words): HeLa, rhodamine-labelled peptides, overall. Here is the method:
N-terminus of each peptides was labeled with fluorescence dye, rhodamine and C-terminus was protected. Peptide purity (>95%) was determined by HPLC. Synthesis of the peptides was requested to PEPTRON, Inc.
HeLa cell line (ATCC) was propagated in DMEM (GIBCO) supplemented with 10% FBS (GIBCO) and 100 units/mL penicillin-streptomycin. Cells were grown in a 5% CO2 incubator at 37° C.
HeLa cells were cultured in 48-well plate until they were 70˜80% grown up before a day of the experiment. The cells were washed with DMEM of 37° C. twice, and TCTP-derived peptides synthesized in Example 2-1) were treated to the culture medium in a dose dependent manner (0, 1, 5, 10, 50, 100 μM), then the cells was incubated for 15 minutes or 2 hours in an CO2 incubator at 37° C.
After the incubation, the cells were washed in cool PBS three times and immediately measured by a microplate fluorescence reader (BIO-TEK instruments, Inc., Vermont, USA) at emission 530 nm and excitation 590 nm for a measurement of rhodamine of intracellular uptake marker. The sensitivity of reader was set at 100 as a basic mode, but was lowered to 75 if the fluorescent signals were too strong. All experiments were conducted in triplet repeats for reproducibility (FIG. 2 and FIG. 3).

Test [2] has as its system HeLa cells. Kind of test: Intracellular translocation of alanine substituents of TCTP(1-9), microplate fluorescence reader. The following applies: for decline in uptake, fluorescence intensity of TCTP (1-9) at 100 μM set to 100%: sensitivity 75 (FIG. 5); for penetrating activity of alanine substituents compared with WT TCTP(1-9): HeLa. As for the experimental part: N-terminus of each peptide was labeled with fluorescence dye, rhodamine and C-terminus was protected. Peptide purity (>95%) was determined by HPLC. Synthesis of peptides of present invention was requested to PEPTRON, Inc.
HeLa cell line was propagated in DMEM supplemented with 10% FBS and 100 units/mL penicillin-streptomycin. Cells were grown in a 5% CO2 incubator at 37° C.
HeLa cells were cultured in 48-well plate until they were 70˜80% grown up before a day of the experiment. The cells were washed with DMEM of 37° C. twice, and TCTP-derived peptides synthesized in Example 4-1) were treated to the culture medium in a dose dependent manner (0, 1, 10, 100 μM), then the cells was incubated for 15 minutes or 2 hours in an CO2 incubator at 37° C.
After the incubation, the cells were washed in cool PBS three times and immediately measured by a microplate fluorescence reader at emission 530 nm and excitation 590 nm for a measurement of rhodamine of intracellular uptake marker. The sensitivity of reader was set at 100 as a basic, but was lowered to 75 if fluorescent signals were strong. All experiments were conducted in triplet repeats for reproducibility (FIG. 5 and FIG. 6).
Meanwhile, when the sensitivity of KC4 plate reader was set down to 75, we could not analyze the result of cell penetrating activity at relatively low concentration of 1 or 10 μM, so sensitivity of reader was fixed at 100 (FIG. 6). At this time, because fluorescence intensity at 100 μM was very strong, we could not express in a same graph.

The test system of test [3] is HeLa cells. Kind of test: Intracellular translocation of TCTP-derived peptide by fluorescence microscope. The following applies: 2 hours. Here is the method:
HeLa cells were treated with TCTP (1-9)(SEQ ID No.: 2) at a concentration of 10 μM and 100 μM by the same method of Example 2-2). […] After washing, cells on cover glass attached slide glass were observed (FIG. 4).

For test [4], the system named is BEAS-2B cell. Kind of test: Cellular uptake of deletion forms of TCTP, western blot of supernatant and lysate. The following applies: 15 ug/ml. As for the experimental part:
To overexpress each of those deletion forms of TCTP (FIGS. 1a and 1c), pRSET vector that is capable of tagging 6 histidine was employed. Subcloning with DNA sequences corresponding to each deletion forms of TCTP was performed in the multicloning site of the vector. Then, the recombinant expression vector was introduced into E. coli BL21(DE3)(Novagen) or BL21(DE3)pLysS (Novagen). The expression of the deletion forms of TCTP was induced by IPTG (isopropyl (-D-thiogalactoside) for 3 hours, then the protein was isolated and purified by using Ni column which binds to polyhistidine.
BEAS-2B cell was treated with the deletion form of TCTP at the concentration of 15 ug/ml with anti-TCTP antibodies (FIG. 1b).
In addition, it was examined whether TCTP proteins of the present invention could be transferred to cellular interior for a short time, 5 minutes or 30 minutes. The experiment was performed by same method as the above (FIG. 1d).

With “IIYRDLISH ((1)..(9) 2-10 amino acid residue of TCTP; listed as Homo sapiens) [SEQ ID No.: 4, Residues of TCTP(2-10)]”, in test [1], the “intracellular translocation, dependence on concentration” value (“intracellular translocation, dependence” for short) is on record as “not translocated at a concentration of 1 μM to 10 μM”. The “efficiency versus control peptide TAT at low concentration” value (“efficiency versus control peptide TAT” below) in test [1] was “lower efficiency than control peptide, TAT”. In test [1] (100 μM, 15 minutes treatment), the “translocation” value was “more efficiently translocated at 100 μM after 15 minutes treatment”. Besides, the “cell penetrating activity / translocation efficiency in comparison with TAT (words)” value in test [1] is “excellent cell penetrating activity in comparison with conventional TAT”; in test [1] (listed as TCTP (2-10)) it was “superior ability than well-known PTD, TAT in their translocation efficiency”; in test [1] (listed as TCTP(2-10)), “more excellent penetrating activity than well-known TAT(47-58) peptide”. Further, the “translocation versus control peptide TAT(48-57)” value in test [1] (after 2 hours, 100 μM) is listed as “more efficiently translocated at 100 μM than control peptide”.

For MIIYRDLAS [SEQ ID No.: 14], in test [2] (2 hours), the “decline in uptake, fluorescence intensity of TCTP (1-9) at 100 μM set to 100%” value (“decline in uptake … to 100%” for short) is “about 50%”.

For the molecule “MIIYRDLAS [SEQ ID No.: 15] (mutant peptide based on human sequence; (1)..(9) TCTP(1-9)I8A)”, the “decline in uptake … to 100%” value in test [2] (2 hours) is recorded as “about 50%”.

“MIIYRDLIS ((1)..(9) 1-9 amino acid residue of TCTP; listed as Homo sapiens) [SEQ ID No.: 2, Residues of TCTP(1-9)]”: the “intracellular translocation (fluorescence microscope)” value in test [3] (10 μM) was “weakly translocated”; in test [3] (100 μM), “strongly”. Further, the “intracellular distribution (fluorescence microscope)” value in test [3] (HeLa) was “distributed widely in cytoplasm and nucleus of the cell”. Further, the “intracellular translocation, dependence” value in test [1] is recorded as “translocated not in 1-10 μM but in 50-100 μM”. In test [1], the “efficiency versus control peptide TAT” value was “lower efficiency than control peptide, TAT”. The “cell penetrating activity / translocation efficiency in comparison with TAT (words)” value is “excellent cell penetrating activity in comparison with conventional TAT” in test [1]; “superior ability than well-known PTD, TAT in their translocation efficiency” in test [1] (listed as TCTP (1-9)); “more excellent penetrating activity than well-known TAT(47-58) peptide” in test [1] (listed as TCTP(1-9)).

With “MIIYRDLISH ((1)..(10) 1-10 amino acid residue of TCTP; listed as Homo sapiens) [SEQ ID No.: 1, Residues of TCTP(1-10)]”, in test [1], the “intracellular translocation, dependence” value is reported as “translocated not in 1-10 μM but in 50-100 μM”. Further, the “efficiency versus control peptide TAT” value in test [1] is recorded as “lower efficiency than control peptide, TAT”. In test [1] (50 μM (FIGS. 2 & 3)), the “cell penetrating activity, SEQ ID No.: 1 versus SEQ ID No.: 2” value is listed as “more effective than SEQ ID No.: 2”. The “concentration at which translocation was saturated” value in test [1] (2 hour treatment (FIG. 3)) amounted to 50 µM. The “cell penetrating activity / translocation efficiency in comparison with TAT (words)” value was “excellent cell penetrating activity in comparison with conventional TAT” in test [1] and “superior ability than well-known PTD, TAT in their translocation efficiency” in test [1] (listed as TCTP (1-10)). Further, the “cell penetrating activity compared to that of TAT” value is reported as “over 3 times” in test [1] (treated for 15 minutes in 50 μM); 6 times in test [1] (treated for 15 minutes in 100 μM); “about 29 times” in test [1] (treatment for 2 hours, 50 μM); approximately 30 times in test [1] (treatment for 2 hours, 100 μM).

On to “MIIYADLIS (mutant peptide based on human sequence; (1)..(9) TCTP(1-9)R5A) [SEQ ID No.: 12]”, for which, in test [2] (2 hours), the “decline in uptake … to 100%” value is “about 50%”. Also, the “penetrating activity of alanine substituents compared with WT TCTP(1-9)” value in test [2] is given as “still maintained in translocation activity”.

“MIIYRDLIA (mutant peptide based on human sequence; (1)..(9) TCTP(1-9)S9A) [SEQ ID No.: 16]”: the “decline in uptake … to 100%” value in test [2] (2 hours) is “about 50%”. The “penetrating activity of alanine substituents compared with WT TCTP(1-9)” value in test [2] is reported as “still maintained in translocation activity”.

As for “MIIYRDLI ((1)..(8) 1-8 amino acid residue of TCTP; listed as Homo sapiens) [SEQ ID No.: 3, Residues of TCTP(1-8)]”, in test [1], the “intracellular translocation, dependence” value is “translocated not in 1-10 μM but in 50-100 μM”; the “efficiency versus control peptide TAT” value is recorded as “lower efficiency than control peptide, TAT”; the “cell penetrating activity / translocation efficiency in comparison with TAT (words)” value is given as “excellent cell penetrating activity in comparison with conventional TAT”. Moreover, the “cell penetrating activity / translocation efficiency in comparison with TAT (words)” value in test [1] (listed as TCTP (1-8)) is listed as “superior ability than well-known PTD, TAT in their translocation efficiency”. Besides, the “cell penetrating activity / translocation efficiency in comparison with TAT (words)” value in test [1] (listed as TCTP(1-8)) is given as “more excellent penetrating activity than well-known TAT(47-58) peptide”.

As for “MIIYRALIS (mutant peptide based on human sequence; (1)..(9) TCTP(1-9)D6A) [SEQ ID No.: 13]”, the “penetrating activity, fluorescence intensity of TCTP (1-9) at 10 μM set to 1” value in test [2] (10 μM, 2 hours, sensitivity 100 (FIG. 6)) stood at 2.5 times. The “decline in uptake … to 100%” value in test [2] (2 hours) is “about 50%”. The “penetrating activity of alanine substituents compared with WT TCTP(1-9)” value in test [2] was “still maintained in translocation activity”.

B1: full length TCTP: translationally controlled tumor protein, 172 amino acids, expressed with 6 histidine tag in E. coli (protein, UniProt P13693 1-172, looked up)
chain: MIIYRDLISHDEMFSDIYKIREIADGLCLEVEGKMVSRTEGNIDDSLIGGNASAEGPEGEGTESTVITGVDIVMNHHLQETSFTKEAYKKYIKDYMKSIKGKLEEQRPERVKPFMTGAAEQIKHILANFKNYQFFIGENMNPDGMVALLDYREDGVTPYMIFFKDGLEMEKC
modifications: full-length
On to B1, for which the “protein in cell supernatant (western blot, anti-TCTP antibodies)” value in test [4] (24 hours later) was “disappeared 24 hours later”; in test [4] (incubation for 1 hour), “existed in cell supernatants”.
